Columns and labels:
Format in all cases: cell-based
[1] = system: DENV-1 strain Djibouti strain (D1/H/IMTSSA/98/606); test: Tetravalent RT-qPCR assay Protocol B, serotype 1; settings: Dengue virus, DENV1, 168 h, RT-qPCR serotype 1 Djibouti, 7 days
Description: (§1) The antiviral activity of the compounds of the invention was tested against DENV-1 strain Djibouti strain (D1/H/IMTSSA/98/606; Table 6), DENV-2 strain NGC (Table 7), DENV-3 strain H87 (Table 8) and DENV-4 strain SG/06K2270DK1/2005 (Table 9B) in a RT-qPCR assay. Vero-B or Vero-M cells (5×10^4) were seeded in 96-well plates. One day later, culture medium was replaced with 100 μL assay medium containing a 2×, 3× or 5× serial dilution of the compound (concentration range: 50 μg/mL-0.00038 μg/mL, 50 μg/mL-0.0076 μg/mL, and 50 μg/mL-0.00013 μg/mL, respectively) and 100 μL of dengue virus inoculum (DENV). Following a 2 hour incubation period, the cell monolayer was washed 3 times with assay medium to remove residual, non-adsorbed virus and cultures were further incubated for either 4 days (DENV-2 NGC) or 7 days (DENV-1 Djibouti strain D1/H/IMTSSA/98/606, DENV-3 strain H87 prototype, DENV-4 strain H241, and DENV-4 strain EDEN) in the presence of the inhibitor. Supernatant was harvested and viral RNA load was determined by real-time quantitative RT-PCR. The 50% effective concentration (EC50), which is defined as the compound concentration that is required to inhibit viral RNA replication by 50%, was determined using logarithmic interpolation.
(§2) RNA was isolated from 100 μL (or in some circumstances 150 μL) supernatant with the NucleoSpin 96 Virus kit (Filter Service, Duren, Germany) as described by the manufacturer. The sequences of the TaqMan primers (DENV-For, DENV-Rev; Table 5) and TaqMan probes (DENV-Probe Table 5) were selected from non-structural gene 3 (NS3) or NS5, of the respective flaviviruses using Primer Express software (version 2.0; Applied Biosystems, Lennik, Belgium). The TaqMan probe was fluorescently labelled with 6-carboxyfluorescein (FAM) at the 5′ end as the reporter dye, and with minor groove binder (MGB) at the 3′ end as the quencher (Table 5). One-step, quantitative RT-PCR was performed in a total volume of 25 μL, containing 13.9375 μL H2O, 6.25 μL master mix (Eurogentec, Seraing, Belgium), 0.375 μL forward primer, 0.375 μL reverse primer, 1 μL probe, 0.0625 μL reverse transcriptase (Eurogentec) and 3 μL sample. RT-PCR was performed using the ABI 7500 Fast Real-Time PCR System (Applied Biosystems, Branchburg, New Jersey, USA) using the following conditions: 30 min at 48° C. and 10 min at 95° C., followed by 40 cycles of 15 s at 95° C. and 1 min at 60° C. The data was analyzed using the ABI PRISM 7500 SDS software (version 1.3.1; Applied Biosystems). For absolute quantification, standard curves were generated using 10-fold dilutions of template preparations of known concentrations.

DENV-2 strain 16681 = test: Tetravalent RT-qPCR assay Protocol A, serotype 2; settings: Dengue virus, DENV2, 72 h; Protocol A, RT-qPCR serotype 2 16681, Vero cells, day 3; read-out: EC50
Description: The antiviral activity of the compounds of the invention was tested against DENV-1 strain TC974#666 (NCPV; Table 6), DENV-2 strain 16681 (Table 7), DENV-3 strain H87 (NCPV; Table 8) and DENV-4 strains H241 (NCPV; Table 9A) and SG/06K2270DK1/2005 (Eden; Table 9B) in a RT-qPCR assay. Therefore, Vero cells were infected with either DENV-1, or -2, or -3, or -4 in the presence or absence of test compounds. At day 3 post-infection, the cells were lysed and cell lysates were used to prepare cDNA of both a viral target (the 3′UTR of DENV; Table 2) and a cellular reference gene (β-actin, Table 2). Subsequently, a duplex real time PCR was performed on a Lightcycler480 instrument. The generated Cp value is inversely proportional to the amount of RNA expression of these targets. Inhibition of DENV replication by test compound results in a shift of Cp's for the 3′UTR gene. On the other hand, if a test compound is toxic to the cells, a similar effect on β-actin expression will be observed. The comparative ΔΔCp method is used to calculate EC50, which is based on the relative gene expression of the target gene (3′UTR) normalized with the cellular housekeeping gene (β-actin).
The culture medium consisted of minimal essential medium supplemented with 2% of heat-inactivated fetal calf serum, 0.04% gentamycin (50 mg/mL) and 2 mM of L-glutamine. Vero cells, obtained from ECACC, were suspended in culture medium and 75 μL/well was added in 96-well plates (10000 cells/well), which already contain the antiviral compounds. […] In addition, each plate contains wells which are assigned as virus controls (containing cells and virus in the absence of compound) and cell controls (containing cells in the absence of virus and compound). Once the cells were added in the plates, the plates were incubated in a fully humidified incubator (37° C., 5% CO2) until the next day. Dengue viruses serotype-1, 2, 3 and 4 were diluted in order to obtain a Cp of ˜22-24 in the assay. Therefore, 25 μL of virus suspension was added to all the wells containing test compound and to the wells assigned as virus control. In parallel, 25 μL of culture medium was added to the cell controls. Next, the plates were incubated for 3 days in a fully humidified incubator (37° C., 5% CO2). After 3 days, the supernatant was removed from the wells and the cells were washed twice with ice-cold PBS (˜100 μL). The cell pellets within the 96-well plates were stored at −80° C. for at least 1 day. Next, RNA was extracted using the Cells-to-CT™ lysis kit, according to the manufacturer's guideline (Life Technologies). The cell lysates can be stored at −80° C. or immediately used in the reverse transcription step.
In preparation of the reverse transcription step, mix A (table 3A) was prepared and 7.57 μL/well was dispensed in a 96-well plate. After addition of 5 μL of the cell lysates, a five minute denaturation step at 75° C. was performed (table 3B). Afterwards, 7.43 μL of mix B was added (table 3C) and the reverse transcription step was initiated (table 3D) to generate cDNA.
Finally, a RT-qPCR mix was prepared, mix C (table 4A), and 22.02 μL/well was dispensed in 96-well LightCycler qPCR plates to which 3 μL of cDNA was added and the qPCR was performed according to the conditions in table 4B on a LightCycler 480.
Using the LightCycler software and an in-house LIMS system, dose response curves for each compound were calculated and the half maximal effective concentration (EC50) and the half maximal cytotoxic concentration (CC50) were determined.

DENV-2 strain NGC = test: Tetravalent RT-qPCR assay Protocol B, serotype 2; settings: Dengue virus, DENV2, 96 h, RT-qPCR serotype 2 NGC-Tongalike, 4 days
Description: as §1, §2

SMILES | EC50 [1] | EC50 (DENV-2 strain 16681) | EC50 (DENV-2 strain NGC)
COc1cc(NC(C(=O)c2c[nH]c3cc(F)ccc23)c2ccc(Cl)cc2OC)cc(S(C)(=O)=O)c1 (single isomer, unassigned) [Compound 1A, 2-(4-chloro-2-methoxyphenyl)-1-(6-fluoro-1H-indol-3-yl)-2-((3-methoxy-5-(methylsulfonyl)phenyl)amino)ethanone] | < 15000 pM | 280 pM | < 270 pM
COc1cc(NC(C(=O)c2c[nH]c3c(C)c(F)ccc23)c2ccc(Cl)cc2OC)cc(S(C)(=O)=O)c1 (single isomer, unassigned) [Compound 2A, 2-(4-chloro-2-methoxyphenyl)-1-(6-fluoro-7-methyl-1H-indol-3-yl)-2-((3-methoxy-5-(methylsulfonyl)phenyl)amino)ethanone] | < 14000 pM | 240 pM | < 240 pM
COc1cc(NC(C(=O)c2c[nH]c3cc(OC)c(C)cc23)c2ccc(Cl)cc2OC)cc(S(C)(=O)=O)c1 (single isomer, unassigned) [Compound 4A, 2-(4-chloro-2-methoxyphenyl)-2-((3-methoxy-5-(methyl-sulfonyl)phenyl)amino)-1-(6-methoxy-5-methyl-1H-indol-3-yl)ethanone] | < 14000 pM | 200 pM | 320 pM
COc1cc(NC(C(=O)c2c[nH]c3cc(OC)c(F)cc23)c2ccc(Cl)cc2OC)cc(S(C)(=O)=O)c1 (single isomer, unassigned) [Compound 5A, 2-(4-chloro-2-methoxyphenyl)-1-(5-fluoro-6-methoxy-1H-indol-3-yl)-2-((3-methoxy-5-(methylsulfonyl)phenyl)amino)ethanone] | < 14000 pM | 340 pM | < 230 pM
COc1cc(NC(C(=O)c2c[nH]c3c(C)c(OC)ccc23)c2ccc(Cl)cc2OC)cc(S(C)(=O)=O)c1 (single isomer, unassigned) [Compound 6A, 2-(4-chloro-2-methoxyphenyl)-2-((3-methoxy-5-(methyl-sulfonyl)phenyl)amino)-1-(6-methoxy-7-methyl-1H-indol-3-yl)ethanone] | < 14000 pM | 110 pM | < 240 pM
